What was measured:
PC-3 = experiment: Anti-proliferative activity of compound against human prostate cancer PC-3 by standard MTT assay; assay type: functional, cell-based; settings: PC-3, Prostate gland
U-87 MG = experiment: Anti-proliferative activity of compound against human glioblastoma tumor cell line U87 by standard MTT assay; assay type: functional, cell-based, U-87MG ATCC
NALM-6 = experiment: Anti-proliferative activity of compound against human leukemia NALM-6 by standard MTT assay; assay type: functional, cell-based
SQ20B = experiment: Anti-proliferative activity of compound against human head/neck cancer SQ20B by standard MTT assay; assay type: functional, cell-based
MDA-MB-231 = experiment: Anti-proliferative activity of compound against human breast cancer MDA-MB-231 by standard MTT assay; assay type: functional, cell-based

SMILES: OC[C@H]1CC[C@H]([C@@H](O)CO)O1 [WHI-259]
- IC50 (PC-3): > 250 µM
- IC50 (U-87 MG): > 250 µM
- IC50 (NALM-6): > 250 µM
- IC50 (SQ20B): > 250 µM
- IC50 (MDA-MB-231): > 250 µM

SMILES: C[C@@H](O)[C@H]1CC[C@H](CO)O1 [WHI-260]
- IC50 (PC-3): > 250 µM
- IC50 (U-87 MG): > 250 µM
- IC50 (NALM-6): > 250 µM
- IC50 (SQ20B): > 250 µM
- IC50 (MDA-MB-231): > 250 µM

SMILES: CCCCCCCCCCCC[C@@H](O)[C@H]1CC[C@H](CO)O1 [WHI-261]
- IC50 (PC-3): 171 µM
- IC50 (U-87 MG): 107 µM
- IC50 (NALM-6): 49 µM
- IC50 (SQ20B): 140 µM
- IC50 (MDA-MB-231): 7 µM

SMILES: O=S(=O)(CC[C@@H](O)[C@H]1CC[C@H](COCc2ccccc2)O1)c1ccccc1 [WHI-262]
- IC50 (PC-3): > 250 µM
- IC50 (U-87 MG): > 250 µM
- IC50 (NALM-6): > 250 µM
- IC50 (SQ20B): > 250 µM
- IC50 (MDA-MB-231): > 250 µM

— ChEMBL document CHEMBL1132867, “A rationally designed anticancer drug targeting a unique binding cavity of tubulin” (Bioorg Med Chem Lett, 2000)
